Results as given in US20050059072A1, “Selective modulation of TLR gene expression” (3M Innovative Properties Company, priority 2003, published 2005).
Entries after “also recorded” stand apart in the source; their conditions may differ.

Experiments:
[1] = test system: TLR3 gene; assay: TLR3 gene expression in macrophages (real-time PCR); format: cell-based, Human; settings: macrophages (FIG. 5)
Experimental: (§1) For some experiments, Peripheral Blood Mononuclear Cells (PBMCs) were isolated from donors by Ficol gradient centrifugation. For other experiments, leukophoresed mononuclear cells were obtained from AllCells, LLC (Berkeley, Calif.). Monocyte derived macrophages and dendritic cells were prepared from PBMCs using positive selection of CD14+ cells with Miltenyi micro beads (Miltenyi Biotec Inc., Auburn, Calif.).
(§2) IRM compounds were prepared as 1000× stocks in DMSO. PBMCs were diluted to approximately 3.0×10^6 cells per mL in Ex-Vivo 20 media, and 1.0 mL was distributed per well in a 96 deep well plate. Cells were allowed to equilibrate at 37° C. for 1 hour, then IRM compound was added to the culture.
(§3) At each indicated time point, cells were harvested as follows. PBMCs and dendritic cells were harvested by centrifuging the plate at 1500 RPM, 360 RCF, at 4° C. in a Qiagen SIGMA centrifuge (Qiagen Inc., Valencia, Calif.). The media was then vacuum aspirated and 400 μL of RLT buffer with 1.0% 2-mercaptoethanol was added to each well. Macrophage cultures were harvested by aspiration of the media and direct addition of the RLT buffer to the well. The total RNA was purified using a semi-automated procedure on the Qiagen BioRobot 8000 (Qiagen Inc., Valencia, Calif.), with an incorporated DNase digestion step.
(§4) The RNA was then ethanol precipitated, washed, and the pellet re-suspended in 10 μL of water. cDNA was made with the Invitrogen Superscript II Kit (Invitrogen Corp., Carlsbad, Calif.) using random priming and 2-3 μg of total RNA. PCR was performed using an ABI 7900 (Applied Biosystems Corp., Foster City, Calif.), and the 384 well Microfluidic Card with Taqman™ chemistry, and the reactions were standardized using 2 ng/μL cDNA in the master mix. […] Data was analyzed using SDS 2.0 software (Applied Biosystems, Inc.) using a threshold value of 0.1. The results were imported into Excel and the expression fold changes were calculated using the ΔΔCt method, (User Bulletin #2, PE Applied BioSystems, Inc.). […]

[2] = test system: TLR1; assay: TLR1 expression in actinic keratosis lesion biopsies, phase II study; format: in vivo, human; settings: AK lesion, 5% cream (ALDARA) 3 times per week for 4 weeks; highest response time point vs sun-unexposed non-AK skin
Excerpt: (§5) A phase II, double-blind, vehicle-controlled, randomized, parallel group study included 17 male subjects with histologically confirmed actinic keratosis (AK). Eligible subjects were randomized to receive either IRM5 formulated as a 5% cream (ALDARA, 3M Pharmaceuticals, St. Paul, Minn.) or vehicle cream in a 3:1 ratio. Study subjects had at least five clinically typical, discrete, visible AK lesions within a 25 cm^2 area on the balding scalp that were suitable for shave biopsies.
(§6) Subjects applied 1 sachet (250 mg) of study cream to the treatment area 3 times per week for 4 weeks. Each dose of study cream was applied prior to normal sleeping hours at approximately the same time on each dosing day and was to remain on the skin for approximately 8 hours.
(§7) Each subject could have up to 8 shave biopsies performed. Biopsy samples obtained at the treatment initiation visit and all subsequent visits were designated for gene expression analysis. At the treatment initiation visit (T=0), an intact lesion in the treatment area was biopsied (sample series A) to establish a baseline for AK gene expression. […] The sun-unexposed area biopsy was used to establish baseline control for gene expression. […]
(§8) RNA from each sample was extracted and expression of TLR1, TLR3, TLR6, TLR7, TLR8, TLR9, and TLR10 was analyzed as described in Example 1. […]

[3] = test system: TLR9; assay: TLR9 expression in actinic keratosis lesion biopsies, phase II study; format: in vivo, human; settings: AK lesion, 5% cream (ALDARA) 3 times per week for 4 weeks; highest response time point vs sun-unexposed non-AK skin
Excerpt: as §5, §6, §7, §8

[4] = test system: TLR3; assay: TLR3 expression in actinic keratosis lesion biopsies, phase II study; format: in vivo, human; settings: AK lesion, 5% cream (ALDARA) 3 times per week for 4 weeks; highest response time point vs sun-unexposed non-AK skin
Excerpt: as §5, §6, §7, §8

[5] = test system: TLR3 gene; assay: TLR3 gene expression in PBMCs (real-time PCR); format: cell-based, Human; settings: in vitro (FIG. 1, FIG. 2)
Experimental: as §1, with “Auburn, Calif.). Dendritic cells were differentiated in RPMI 1640 with 10% fetal bovine serum, using 33 ng/mL IL4 and 66 ng/mL GM-CSF, and macrophages were differentiated using 25 ng/mL M-CSF, for seven days at 37° C.” for “Auburn, Calif.).”
as §2, §3
(§9) Purified total RNA was transferred to Costar 3565 plate and the optical density at 260 nm and 280 nm was read using a Molecular Devices SpectroMax 384 Plus (Molecular Devices Corp., Sunnyvale, Calif.). The RNA was then ethanol precipitated, washed, and the pellet re-suspended in 10 μL of water. cDNA was made with the Invitrogen Superscript II Kit (Invitrogen Corp., Carlsbad, Calif.) using random priming and 2-3 μg of total RNA. PCR was performed using an ABI 7900 (Applied Biosystems Corp., Foster City, Calif.), and the 384 well Microfluidic Card with Taqman™ chemistry, and the reactions were standardized using 2 ng/μL cDNA in the master mix. Cycling conditions were 50° C. for 10 minutes, 95° C. for 2 minutes, then 35 cycles of 95° C. for 30 seconds, and 60° C. for 1 minute. Data was analyzed using SDS 2.0 software (Applied Biosystems, Inc.) using a threshold value of 0.1. The results were imported into Excel and the expression fold changes were calculated using the ΔΔCt method, (User Bulletin #2, PE Applied BioSystems, Inc.). Normalization of signals was performed using the housekeeping gene, GAPDH.

[6] = test system: TLR6; assay: TLR6 expression in actinic keratosis lesion biopsies, phase II study; format: in vivo, human; settings: AK lesion, 5% cream (ALDARA) 3 times per week for 4 weeks; highest response time point vs sun-unexposed non-AK skin
Excerpt: as §5, §6, §7, §8

[7] = test system: TLR8; assay: TLR8 expression in actinic keratosis lesion biopsies, phase II study; format: in vivo, human; settings: AK lesion, 5% cream (ALDARA) 3 times per week for 4 weeks; highest response time point vs sun-unexposed non-AK skin
Excerpt: as §5, §6, §7, §8

[8] = test system: TLR7; assay: TLR7 expression in actinic keratosis lesion biopsies, phase II study; format: in vivo, human; settings: AK lesion, 5% cream (ALDARA) 3 times per week for 4 weeks; highest response time point vs sun-unexposed non-AK skin
Excerpt: as §5, §6, §7, §8

[9] = test system: TLR10; assay: TLR10 expression in actinic keratosis lesion biopsies, phase II study; format: in vivo, human; settings: AK lesion, 5% cream (ALDARA) 3 times per week for 4 weeks; highest response time point vs sun-unexposed non-AK skin
Excerpt: as §5, §6, §7, §8

[10] = test system: TLR7; assay: TLR7 gene expression in dendritic cells (real-time PCR); format: cell-based, Human
Experimental: as §1, with “Auburn, Calif.). Dendritic cells were differentiated in RPMI 1640 with 10% fetal bovine serum, using 33 ng/mL IL4 and 66 ng/mL GM-CSF, and macrophages were differentiated using 25 ng/mL M-CSF, for seven days at 37° C.” for “Auburn, Calif.).”
(§10) IRM compounds were prepared as 1000× stocks in DMSO. PBMCs were diluted to approximately 3.0×10^6 cells per mL in Ex-Vivo 20 media, and 1.0 mL was distributed per well in a 96 deep well plate. Cells were allowed to equilibrate at 37° C. for 1 hour, then IRM compound was added to the culture. […]
(§11) Purified total RNA was transferred to Costar 3565 plate and the optical density at 260 nm and 280 nm was read using a Molecular Devices SpectroMax 384 Plus (Molecular Devices Corp., Sunnyvale, Calif.). […] Data was analyzed using SDS 2.0 software (Applied Biosystems, Inc.) using a threshold value of 0.1. The results were imported into Excel and the expression fold changes were calculated using the ΔΔCt method, (User Bulletin #2, PE Applied BioSystems, Inc.). […]

[11] = test system: TLR6; assay: TLR6 gene expression in dendritic cells (real-time PCR); format: cell-based, Human
Experimental: as §1, with “Auburn, Calif.). Dendritic cells were differentiated in RPMI 1640 with 10% fetal bovine serum, using 33 ng/mL IL4 and 66 ng/mL GM-CSF, and macrophages were differentiated using 25 ng/mL M-CSF, for seven days at 37° C.” for “Auburn, Calif.).”
as §10, §11

[12] = test system: TLR7 gene; assay: TLR7 gene expression in macrophages (real-time PCR); format: cell-based, Human; settings: macrophages (FIG. 7)
Experimental: as §1, §2
(§12) At each indicated time point, cells were harvested as follows. […]
as §4, with “RNA.” for “RNA. PCR was performed using an ABI 7900 (Applied Biosystems Corp., Foster City, Calif.), and the 384 well Microfluidic Card with Taqman™ chemistry, and the reactions were standardized using 2 ng/μL cDNA in the master mix.”

[13] = test system: TLR5 gene; assay: TLR5 gene expression in macrophages (real-time PCR); format: cell-based, Human; settings: macrophages (FIG. 6)
Experimental: as §1, §2, §12
as §4, with “RNA.” for “RNA. PCR was performed using an ABI 7900 (Applied Biosystems Corp., Foster City, Calif.), and the 384 well Microfluidic Card with Taqman™ chemistry, and the reactions were standardized using 2 ng/μL cDNA in the master mix.”

[14] = test system: TLR8 gene; assay: TLR8 gene expression in PBMCs (real-time PCR); format: cell-based, Human; settings: in vitro (FIG. 1, FIG. 4)
Experimental: as §1, with “Auburn, Calif.). Dendritic cells were differentiated in RPMI 1640 with 10% fetal bovine serum, using 33 ng/mL IL4 and 66 ng/mL GM-CSF, and macrophages were differentiated using 25 ng/mL M-CSF, for seven days at 37° C.” for “Auburn, Calif.).”
as §2, §3, §9

[15] = test system: TLR7 gene; assay: TLR7 gene expression in PBMCs (real-time PCR); format: cell-based, Human; settings: in vitro (FIG. 1, FIG. 3)
Experimental: as §1, with “Auburn, Calif.). Dendritic cells were differentiated in RPMI 1640 with 10% fetal bovine serum, using 33 ng/mL IL4 and 66 ng/mL GM-CSF, and macrophages were differentiated using 25 ng/mL M-CSF, for seven days at 37° C.” for “Auburn, Calif.).”
as §10, §11

CC(C)Cn1cnc2c(N)nc3ccccc3c21 [IRM5, 1-(2-methylpropyl)-1H-imidazo[4,5-c]quinolin-4-amine]
modulation of TLR3 gene expression [1]: do not significantly modulate gene expression
Median Fold Change - IRM5-treated (IRM-treated/Series C), TLR1 [2]: 2.1 fold
Median Fold Change - IRM5-treated (IRM-treated/Series C), TLR9 [3]: 15.2 fold
Median Fold Change - IRM5-treated (IRM-treated/Series C), TLR3 [4]: 1.5 fold
modulation of TLR3 gene expression [5]: upregulate gene expression
Median Fold Change - IRM5-treated (IRM-treated/Series C), TLR6 [6]: 1.9 fold
Median Fold Change - IRM5-treated (IRM-treated/Series C), TLR8 [7]: 2.4 fold
Median Fold Change - IRM5-treated (IRM-treated/Series C), TLR7 [8]: 4.9 fold
Median Fold Change - IRM5-treated (IRM-treated/Series C), TLR10 [9]: 3.6 fold

CCOCc1nc2c(N)nc3c(c2n1CC(C)(C)O)CCCC3 [IRM1, 4-amino-2-(ethoxymethyl)-α,α-dimethyl-6,7,8,9-tetrahydro-1H-imidazo[4,5-c]quinoline-1-ethanol]
modulation of expression from TLR7 [10]: may downregulate expression
modulation of TLR3 gene expression [1]: downregulated; also recorded: downregulates gene expression
modulation of expression from TLR6 [11]: may downregulate expression
modulation of TLR7 gene expression [12]: downregulated
modulation of TLR3 gene expression [5]: upregulates gene expression
modulation of TLR5 gene expression [13]: downregulated
modulation of TLR8 gene expression [14]: higher and earlier peaks of gene expression

Cc1nc2c(N)nc3cccnc3c2n1CC(C)C [IRM8, 2-methyl-1-(2-methylpropyl)-1H-imidazo[4,5-c][1,5]naphthyridin-4-amine]
modulation of TLR8 gene expression [14]: higher and earlier peaks of gene expression

Cc1nc2c(N)nc3ccccc3c2n1CC(C)(C)O [IRM6, 4-amino-α,α,2-trimethyl-1H-imidazo[4,5-c]quinoline-1-ethanol]
modulation of TLR8 gene expression [14]: higher and earlier peaks of gene expression

CC(C)Cn1cnc2c(N)nc3cccnc3c21 [IRM7, 1-(2-methylpropyl)-1H-imidazo[4,5-c][1,5]naphthyridin-4-amine]
modulation of TLR7 gene expression [15]: little effect on gene expression
modulation of TLR3 gene expression [5]: little effect on gene expression
modulation of TLR8 gene expression [14]: little effect on gene expression

CCCCc1nc2c(N)nc3ccccc3c2n1CCCCNS(C)(=O)=O [IRM3, N-[4-(4-amino-2-butyl-1H-imidazo[4,5-c]quinolin-1-yl)butyl]methanesulfonamide]
modulation of TLR3 gene expression [1]: do not significantly modulate gene expression
modulation of TLR3 gene expression [5]: upregulate gene expression
